Read-outs that look alike come from different tables or passages of the source.
Target: T1, purified catalytic domain of recombinant human TACE (rhTACEc) (Homo sapiens, UniProt P78536, N452Q/S266A)
T1 construct: Residue 215 to 477 with two mutation (S266A and N452Q) and a 6×His tail; 6xHis (C); made in house; host or cells: baculovirus/Hi5 insect cells
Test: TACE kinetic assay: cleavage of internally quenched peptide substrate SPDL-3, fluorescence
Type: biochemical
Details: read-out: Ki
Protocol: TACE activity is determined by a kinetic assay measuring the rate of increase in fluorescent intensity generated by TACE catalyzed cleavage of an internally quenched peptide substrate (SPDL-3). […] It is purified from the baculovirus/Hi5 cells expression system using affinity chromatography. […] MCA is (7-Methoxycoumarin-4-yl)acetyl. Dpa is N-3-(2,4-Dinitrophenyl)-L-2,3-diaminopropionyl.
A 50 μl assay mixture contains 20 mM HEPES, pH 7.3, 5 mM CaCl2, 100 μM ZnCl2, 2% DMSO, 0.04% Methylcellulose, 30 μM SPDL-3, 70 pM rhTACEc and a test compound. RhTACEc is pre-incubated with the testing compound for 90 min. at 25° C. Reaction is started by addition of the substrate. […] Rate of enzymatic reaction is shown as Units per second. Effect of a test compound is shown as % of TACE activity in the absence of the compound.

[1] = TACE inhibitory activity, class symbols
[2] = TACE, representative compounds, numeric values

T1 sequence (P78536 215-477 S266A/N452Q): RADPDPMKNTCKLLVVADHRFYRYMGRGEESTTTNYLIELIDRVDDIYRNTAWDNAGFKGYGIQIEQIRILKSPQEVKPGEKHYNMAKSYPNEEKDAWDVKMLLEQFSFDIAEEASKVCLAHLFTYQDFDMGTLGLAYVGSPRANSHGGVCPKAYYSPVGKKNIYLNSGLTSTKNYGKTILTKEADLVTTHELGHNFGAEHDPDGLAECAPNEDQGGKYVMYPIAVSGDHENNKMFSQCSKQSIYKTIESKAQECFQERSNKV

Ki [1] [µM]	Ki [2] [µM]	SMILES
> 1	–	CCCN(C(=O)[C@H](O)[C@@H](O)C(=O)N[C@H](C)c1ccc(-n2cccn2)cc1)C(C)c1cccc(Cl)c1 (stereo partly shown) [Compound 2486]
–	0.00086	COc1cc2c(cc1OC)C(c1ccccc1)N(C(=O)[C@H](O)[C@@H](O)C(=O)N[C@H](C)c1ccc(-n3cccn3)cc1)CC2 (stereo partly shown) [drawing 1306]
–	0.00089	CCNc1nc([C@@H]2c3ccccc3CN2C(=O)[C@H](O)[C@@H](O)C(=O)N[C@H](C)c2ccc(-n3cccn3)cc2)cs1 [drawing 1307]
< 0.02	–	C[C@@H](NC(=O)[C@H](O)[C@@H](O)C(=O)N1CCc2ccccc2C1)c1ccc(-n2cccn2)cc1 [Compound 2438]
0.02 to 0.1	–	CO[C@@H](C(=O)NCc1ccc(-c2ccc(F)cc2OCCC2CCCCC2)cc1)[C@@H](O)C(=O)N1Cc2cccnc2C1 [Compound 2476]
< 0.02	–	C[C@@H](NC(=O)[C@H](O)[C@@H](O)C(=O)N1CCC[C@@H]1c1ccn(-c2cccc(F)c2)n1)c1ccc(-n2cccn2)cc1 [Compound 2598]
–	0.0014	CNc1nc([C@H]2C[C@H]3C[C@H]3N2C(=O)[C@H](O)[C@@H](O)C(=O)N[C@H](C)c2ccc(-n3cccn3)cc2)cs1 [drawing 1312]
< 0.02	–	O=C(NC[C@H]1CC[C@H](n2c(C(F)(F)F)nc3ccccc32)CC1)[C@H](O)[C@@H](O)C(=O)N1CCC[C@@H]1c1ccccc1 [Compound 2351]
0.1 to 1	–	C[C@@H](NC(=O)[C@H](O)[C@@H](O)C(=O)N1CCCN1c1cccc(Cl)c1)c1ccc(-n2cccn2)cc1 [Compound 2495]
0.02 to 0.1	–	NC[C@@H]1[C@H]2CN(C(=O)[C@H](O)[C@@H](O)C(=O)NCC3CCN(c4ccccc4OC(F)(F)F)CC3)C[C@@H]12 [Compound 2156]
0.02 to 0.1	–	C[C@@H](NC(=O)[C@H](O)[C@@H](O)C(=O)N1CCCCC1c1nccs1)c1ccc(-n2cccn2)cc1 (stereo partly shown) [Compound 2416]
> 1	–	Cn1cc(-c2ccccc2)nc1[C@H](O)[C@@H](O)C(=O)NCC1CCN(c2ccc(F)cc2C#N)CC1 [Compound 2396]
> 1	–	C[C@@H](NC(=O)[C@](C)(O)[C@@H](O)C(=O)N1CCCC1(C)c1cccc(Cl)c1)c1ccc(-n2cccn2)cc1 (stereo partly shown) [Compound 2236]
< 0.02	–	C[C@@H](NC(=O)[C@H](O)[C@@H](O)C(=O)N1CCC[C@@H]1c1csc2nccn12)c1ccc(-n2cccn2)cc1 [Compound 2506]
< 0.02	–	C[C@@H](NC(=O)[C@H](O)[C@@H](O)C(=O)N1CCC[C@@H]1c1ccn(C)n1)c1ccc(-n2cccn2)cc1 [Compound 2248]
–	0.0005	CNc1nc([C@H]2c3ccccc3CN2C(=O)[C@H](O)[C@@H](O)C(=O)N[C@H](C)c2ccc(-n3cccn3)cc2)cs1
–	0.00074	C[C@@H](NC(=O)[C@H](O)[C@@H](O)C(=O)N1Cc2ccncc2C1)C1CCN(c2ccccc2OC(F)(F)F)CC1
0.02 to 0.1	–	O=C(NCC1CCN(c2ccccc2OCCC2CCCCC2)CC1)[C@H](O)[C@@H](O)C(=O)N1CCCC1 [Compound 2158]
> 1	–	O=C(NCc1ccc(-c2ccccc2OC(F)(F)F)cn1)[C@H](O)[C@@H](O)c1ccccn1 [Compound 2398]
0.1 to 1	–	CCN(C(=O)[C@H](O)[C@@H](O)C(=O)N[C@H](C)c1ccc(-n2cccn2)cc1)C(C)c1cccc(Cl)c1 (stereo partly shown) [Compound 2481]

Ki [1] [µM]	Ki [2] [µM]	SMILES
> 1	–	C[C@@H](NC(=O)[C@H](O)[C@@H](O)C(=O)N1CC(C)(C)C[C@@]1(C)c1cccc(Cl)c1)c1ccc(-n2cccn2)cc1 [Compound 2239]
0.02 to 0.1	–	CNc1nc2c(s1)CN(C(=O)[C@H](O)[C@@H](O)C(=O)N[C@H](C)c1ccc(-n3cccn3)cc1)CC2 [Compound 2084]
–	0.003	C[C@@H](NC(=O)[C@H](O)[C@@H](O)C(=O)N1CCc2ccc(F)cc2C1)c1ccc(-n2cccn2)cc1 [drawing 1323]
0.02 to 0.1	–	C[C@@H](NC(=O)[C@H](O)[C@@H](O)C(=O)N1CCCCC1c1cccc(Cl)c1)c1ccc(-n2cccn2)cc1 (stereo partly shown) [Compound 2415]
< 0.02	–	CNc1nc(C2(C)CCCN2C(=O)[C@H](O)[C@@H](O)C(=O)N[C@H](C)c2ccc(-n3cccn3)cc2)cs1 (stereo partly shown) [Compound 2244]
0.02 to 0.1	–	C[C@@H](NC(=O)[C@H](O)[C@@H](O)C(=O)N1CCNCC1c1ccccc1)c1ccc(-n2cccn2)cc1 (stereo partly shown) [Compound 2414]
< 0.02	–	CC(C)Nc1nc([C@H]2c3ccccc3CCN2C(=O)[C@H](O)[C@@H](O)C(=O)N[C@H](C)c2ccc(-n3cccn3)cc2)cs1 [Compound 2588]
0.02 to 0.1	–	C[C@@H](NC(=O)[C@](C)(O)[C@@H](O)C(=O)N1CCc2ccc(F)cc2C1)c1ccc(-n2cccn2)cc1 [Compound 2440]
< 0.02	–	O=C(NCc1ccc(-c2ccccc2OC(F)(F)F)cn1)[C@H](O)[C@@H](O)C(=O)N1CCCC1 [Compound 2350]
0.1 to 1	–	C[C@@H]1CCC[C@H](C)N1C(=O)[C@H](O)[C@@H](O)C(=O)N[C@H](C)c1ccc(-n2cccn2)cc1 [Compound 2409]
0.1 to 1	–	C[C@@H](NC(=O)[C@](C)(O)[C@@H](O)C(=O)N1Cc2cccnc2C1)c1ccc(-n2cccn2)c(OCC2CC2)c1 [Compound 2358]
0.02 to 0.1	–	Cc1cccc2c1CN(C(=O)[C@H](O)[C@@](C)(O)C(=O)N[C@H](C)c1ccc(-n3cccn3)cc1)C2 [Compound 2446]
< 0.02	–	CCNc1nc([C@H]2CCCN2C(=O)[C@H](O)[C@@H](O)C(=O)N[C@H](C)c2ccc(-n3cccn3)cc2)cs1 [Compound 2256]
0.1 to 1	–	CCOc1cc(F)ccc1-c1ccc(CNC(=O)[C@H](OC)[C@@H](O)C(=O)N2Cc3cccnc3C2)cc1 [Compound 2477]
0.1 to 1	–	C[C@@H](NC(=O)[C@H](O)[C@@H](O)C(=O)N1CCCC(C)(C)C1)c1ccc(-n2cccn2)cc1 [Compound 2412]
> 1	–	C[C@@H](NC(=O)[C@H](O)[C@@H](O)C(=O)N1Cc2cccnc2C1)c1cccc(O)c1 [Compound 2307]
< 0.02	–	C[C@@H](NC(=O)[C@H](O)[C@@H](O)C(=O)N1CCC[C@@H]1c1csc(N)n1)c1ccc(-n2cccn2)cc1 [Compound 2255]
< 0.02	–	CC#CCOc1cc([C@@H](C)NC(=O)[C@H](O)[C@@H](O)C(=O)N2CCC[C@@H]2c2cccc(Cl)c2)ccc1-n1cccn1 [Compound 2571]
< 0.02	–	C[C@@H](NC(=O)[C@H](O)[C@@H](O)C(=O)N1CCC[C@@H]1c1csc(NS(C)(=O)=O)n1)c1ccc(-n2cccn2)cc1 [Compound 2581]
–	0.0027	C[C@@H](NC(=O)[C@H](O)[C@@H](O)C(=O)N1CCC[C@@H]1c1ccn(-c2ccc(F)cc2)n1)c1ccc(-n2cccn2)cc1 [drawing 1320]

Ki [1] [µM]	Ki [2] [µM]	SMILES
–	0.0027	O=C(NCc1ccn(Cc2ccccc2Cl)n1)[C@H](O)[C@@H](O)C(=O)N1CCC[C@@H]1c1cccc(Cl)c1
< 0.02	–	CC(=O)N(C)c1nc([C@H]2CCCN2C(=O)[C@H](O)[C@@H](O)C(=O)N[C@H](C)c2ccc(-n3cccn3)cc2)cs1 [Compound 2261]
–	0.00057	CNc1nc([C@H]2C=CCN2C(=O)[C@H](O)[C@@H](O)C(=O)N[C@H](C)c2ccc(-n3cccn3)cc2)cs1 [drawing 1300]
> 1	–	C[C@@H](NC(=O)[C@H](O)[C@@H](O)C(=O)N1Cc2cccnc2C1)c1cccc(OCc2ccccc2)c1 [Compound 2308]
< 0.02	–	C[C@@H](NC(=O)[C@H](O)[C@@H](O)C(=O)N1CCC[C@@H]1c1ccn(-c2ccc(F)cc2)n1)c1ccc(-n2cccn2)cc1 [Compound 2599]
< 0.02	–	CCOc1cc(F)ccc1-c1ccc(CNC(=O)[C@H](O)[C@@H](O)C(=O)N2Cc3cccnc3C2)cc1 [Compound 2036]
0.02 to 0.1	–	O=C(NCC1CCN(c2ccc(F)cc2OCC(F)(F)F)CC1)[C@H](O)[C@@H](O)C(=O)N1CCCC1 [Compound 2142]
0.02 to 0.1	–	CCC(c1cccc(Cl)c1)N(C)C(=O)[C@H](O)[C@@H](O)C(=O)N[C@H](C)c1ccc(-n2cccn2)cc1 (stereo partly shown) [Compound 2487]
0.1 to 1	–	C[C@@H](NC(=O)[C@H](O)[C@@H](O)C(=O)N1CCNCC1)c1ccc(-n2cccn2)cc1 [Compound 2423]
0.02 to 0.1	–	CC1c2cncnc2CN1C(=O)[C@H](O)[C@@H](O)C(=O)N[C@H](C)c1ccc(-n2cccn2)cc1 (stereo partly shown) [Compound 2050]
> 1	–	C[C@@H](NC(=O)[C@](C)(O)[C@@H](O)C(=O)N1CCCCC1c1ccccc1)c1ccc(-n2cccn2)cc1 (stereo partly shown) [Compound 2411]
< 0.02	–	CC(C)Nc1nc([C@H]2c3ccccc3CN2C(=O)[C@H](O)[C@@H](O)C(=O)N[C@H](C)c2ccc(-n3cccn3)cc2)cs1 [Compound 2592]
0.1 to 1	–	C[C@@H](NC(=O)[C@H](O)[C@@H](O)C(=O)N1CCn2cnnc2C1)c1ccc(-n2cccn2)cc1 [Compound 2080]
< 0.02	–	C[C@@H](NC(=O)[C@H](O)[C@@H](O)C(=O)N1CCC[C@@H]1c1ncccn1)c1ccc(-n2cccn2)cc1 [Compound 2242]
< 0.02	–	CCNc1nc([C@H]2C[C@@H](C)CN2C(=O)[C@H](O)[C@@H](O)C(=O)N[C@H](C)c2ccc(-n3cccn3)cc2)cs1 [Compound 2271]
< 0.02	–	CNc1nc([C@H]2CC(F)(F)CN2C(=O)[C@H](O)[C@@H](O)C(=O)N[C@H](C)c2ccc(-n3cccn3)cc2)cs1 [Compound 2567]
< 0.02	–	CNc1nc([C@H]2C=CCN2C(=O)[C@H](O)[C@@H](O)C(=O)N[C@H](C)c2ccc(-n3cccn3)cc2)cs1 [Compound 2250]
> 1	–	O=C([C@H](O)[C@@H](O)c1cncc(N2CCN(c3ccccc3)CC2)n1)N1Cc2ccccc2C1 [Compound 2393]

Reference: patent US7652020B2, “Compounds for the treatment of inflammatory disorders” (Schering Corporation, priority 2004, dated 2010)
